Test results taken from article PMC3610419, “A Randomized, Double-Blind Placebo Controlled Trial of Balapiravir, a Polymerase Inhibitor, in Adult Dengue Patients” (The Journal of Infectious Diseases, 2012).
Marks after values point to notes of the source that are not given here.

What was measured:
[1] = Safety and tolerability, adverse events in adult dengue patients; conditions: for safety and tolerability: 1500 mg or 3000 mg orally twice daily for 5 days, adult dengue patients
Description: Randomization to treatment group was by computer-generated randomization sequencing in blocks of 2. Balapiravir was formulated in a 500-mg film-coated tablet. The placebo consisted of an identical looking tablet containing excipient only. All balapiravir and placebo tablets were provided by F. Hoffmann-La Roche. Patients in cohort 1 (n = 20) received 1500 mg of balapiravir or an identical placebo orally every 12 hours for 5 days (10 doses). The decision to dose escalate (to 3000 mg) was made after review of the partially unblinded group mean clinical and laboratory data acquired from patients in cohort 1. Patients in cohort 2 (n = 44) received 3000 mg of balapiravir or placebo orally twice a day for 5 days (10 doses).
Eligible patients remained in clinic during a 7-day in-patient period then returned for follow-up visits on study days 14, 28, and 84. During the inpatient period, patient vital signs were assessed every 6 hours and routine laboratory investigations were performed daily or as clinically indicated. Safety and tolerability were monitored at regular intervals and included physical examinations, vital signs, electrocardiograms, clinical laboratory assessments, incidence of clinical adverse events, and concomitant medications. Any clinically significant abnormal laboratory test results were followed up until resolved or stabilized. A quality of life assessment, using a questionnaire and a visual analog scale, was implemented on study days 1, 3, 5, 7, 14, 28, and 84.

[2] = system: DENV-2; experiment: Inhibition of DENV replication in Huh-7 cells, viral RNA by quantitative real time PCR; assay type: cell-based, dengue virus; conditions: Dengue virus, DENV2, Huh-7, 48 h, mean ± SD of 3 experiments
Description: (§1) ^a Each experiment was done in duplicate. The mean and standard deviation shown represent 3 independent (different date) experiments for each virus tested. Huh-7 cells were plated in 96-well plate at 10,000 cells/well in DMEM containing 10 % FBS in 100 μl volume one day prior to set up of the assay. The following day the medium was aspirated off and diluted virus at a multiplicity of infection of 0.5 or media was added to the assay and control wells, respectively. The virus was allowed to attach to the cells for two hours at 37°C in a humidified 5% C02 atmosphere while the dilutions of the test molecule were prepared. Test molecules (or medium as a control) were added after aspiration of the virus-containing media 2 hours post-infection in 3-fold dilutions at a final DMSO concentration of 1%. After 48 hrs, cells were washed and cellular RNA were isolated. In this study, we used a quantitative real time PCR method to quantitate dengue viral RNA in Huh-7 in the presence of inhibitors. Viral RNA and endogenous 18S rRNA control (Applied Bio System) was quantified by a real time PCR assay using the following primers. Dengue Reverse (Common to all the serotypes): 5’-[…]-3’, Dengue forward serotype 1: 5’-[…]-3’, Dengue forward serotype 2 or 3: 5’-[…]-3’, Dengue forward serotype 4: 5’-[…] -3’ and Dengue probe (Common to all the serotypes): 5'-/56-FAM/[…]/3BHQ_1/-3'. Taqman was performed in duplicate. IC50 was obtained using the following calculations. First ΔCt was calculated by subtracting 18S rRNA CT value from dengue RNA CT value. ΔCts from duplicate taqman assay were averaged. Then ΔΔCt was obtained by subtracting the average ΔCt of non-treated sample from the treated sample average ΔCt. Relative quantification was calculated using the following formula. Relative quantification = 2^-averageΔΔCT. The 50% inhibitory concentrations (EC50) were calculated using the sigmoidal dose-response model in Microsoft XLfit.

[3] = system: DENV-4; experiment: as above; assay type: cell-based, dengue virus; conditions: Dengue virus, DENV4, Huh-7, 48 h, mean ± SD of 3 experiments
Description: as §1

[4] = system: DENV-1; experiment: as above; assay type: cell-based, dengue virus; conditions: Dengue virus, DENV1, Huh-7, 48 h, mean ± SD of 3 experiments
Description: as §1

[5] = High dose (3000 mg twice a day, 5 days), n=22
[6] = Low dose (1500 mg twice a day, 5 days), n=10

## CC(C)C(=O)OC[C@@]1(N=[N+]=[N-])O[C@@H](n2ccc(N)nc2=O)[C@H](OC(=O)C(C)C)[C@@H]1OC(=O)C(C)C [Balapiravir]
[1]; 1500 mg balapiravir arm
  reported serious adverse events (SAEs): 1
[1]
  safety and tolerability: safe and well-tolerated
[1]; listed as balapiravir
  safety and tolerability: well tolerated
[1]; 3000 mg balapiravir arm
  reported serious adverse events (SAEs): 1
[1]; [5]
  ABDOMINAL PAIN: 3 (13.64%) no.pt. (%)
  ABNORMAL INR: 1 (4.55%) no.pt. (%)
  ALTERATION OF TASTE: 0 (0%) no.pt. (%)
  ANOREXIA: 1 (4.55%) no.pt. (%)
  ANY EVENT - no (%) patients with at least one event: 19 (86.36%) no.pt. (%)
  ANY EVENT - no of events: 65
  BRUISING: 2 (9.09%) no.pt. (%)
  COUGH: 4 (18.18%) no.pt. (%)
  DECREASE OF FIBRINOGEN: 4 (18.18%) no.pt. (%)
  DIARRHOEA: 8 (36.36%) no.pt. (%)
  DYSPEPSIA: 1 (4.55%) no.pt. (%)
  ELEVATED ALT: 0 (0%) no.pt. (%)
  ELEVATED AST: 0 (0%) no.pt. (%)
  EPISTAXIS: 0 (0%) no.pt. (%)
  FLATULENCE: 0 (0%) no.pt. (%)
  GUM BLEEDING: 6 (27.27%) no.pt. (%)
  HEADACHE: 5 (22.73%) no.pt. (%)
  HEMATEMESIS: 0 (0%) no.pt. (%)
  HEMATURIA: 1 (4.55%) no.pt. (%)
  HEMOPTYSIS: 0 (0%) no.pt. (%)
  HYPOALBUMINEMIA: 1 (4.55%) no.pt. (%)
  ITCHY RASH ON CHEEK, AND FOREHEAD: 0 (0%) no.pt. (%)
  NARROW PULSE PRESSURE: 0 (0%) no.pt. (%)
  NAUSEA: 2 (9.09%) no.pt. (%)
  PETECHIAE: 6 (27.27%) no.pt. (%)
  PROLONGED APTT: 7 (31.82%) no.pt. (%)
  PROTEINURIA: 0 (0%) no.pt. (%)
  PRURITIS: 0 (0%) no.pt. (%)
  RETINAL INJURY: 0 (0%) no.pt. (%)
  SORE THROAT: 0 (0%) no.pt. (%)
  VERTIGO: 0 (0%) no.pt. (%)
  VOMIT: 2 (9.09%) no.pt. (%)
[1]; High dose (3000 mg twice a day, 5 days), n=22, one patient in this group had a SAE
  THROMBOCYTOPENIA: 11 (50%) ^a no.pt. (%)
[1]; [6]
  ABDOMINAL PAIN: 0 (0%) no.pt. (%)
  ABNORMAL INR: 0 (0%) no.pt. (%)
  ALTERATION OF TASTE: 0 (0%) no.pt. (%)
  ANOREXIA: 2 (20%) no.pt. (%)
  ANY EVENT - no (%) patients with at least one event: 8 (80%) no.pt. (%)
  ANY EVENT - no of events: 30
  BRUISING: 0 (0%) no.pt. (%)
  COUGH: 0 (0%) no.pt. (%)
  DECREASE OF FIBRINOGEN: 1 (10%) no.pt. (%)
  DIARRHOEA: 4 (40%) no.pt. (%)
  DYSPEPSIA: 1 (10%) no.pt. (%)
  ELEVATED ALT: 0 (0%) no.pt. (%)
  ELEVATED AST: 0 (0%) no.pt. (%)
  EPISTAXIS: 0 (0%) no.pt. (%)
  FLATULENCE: 0 (0%) no.pt. (%)
  GUM BLEEDING: 0 (0%) no.pt. (%)
  HEADACHE: 2 (20%) no.pt. (%)
  HEMATEMESIS: 0 (0%) no.pt. (%)
  HEMATURIA: 0 (0%) no.pt. (%)
  HEMOPTYSIS: 0 (0%) no.pt. (%)
  HYPOALBUMINEMIA: 1 (10%) no.pt. (%)
  ITCHY RASH ON CHEEK, AND FOREHEAD: 1 (10%) no.pt. (%)
  NAUSEA: 0 (0%) no.pt. (%)
  PETECHIAE: 4 (40%) no.pt. (%)
  PROLONGED APTT: 2 (20%) no.pt. (%)
  PROTEINURIA: 1 (10%) no.pt. (%)
  PRURITIS: 1 (10%) no.pt. (%)
  RETINAL INJURY: 0 (0%) no.pt. (%)
  SORE THROAT: 0 (0%) no.pt. (%)
  THROMBOCYTOPENIA: 4 (40%) no.pt. (%)
  VERTIGO: 1 (10%) no.pt. (%)
  VOMIT: 4 (40%) no.pt. (%)
[1]; Low dose (1500 mg twice a day, 5 days), n=10, one patient in this group had a SAE
  NARROW PULSE PRESSURE: 1 (10%) ^a no.pt. (%)
[2]; DENV-2 strain 32/0102 (clinical isolate), Huh-7 cells
  IC50: 3 ± 0.5 µM
[2]; DENV-2 strain 32/0140 (clinical isolate), Huh-7 cells
  IC50: 1.9 ± 0.7 µM
[2]; DENV-2 strain 33/0051 (clinical isolate), Huh-7 cells
  IC50: 2 ± 0.2 µM
[2]; DENV-2 strain 33/0178 (clinical isolate), Huh-7 cells
  IC50: 2 ± 0.6 µM
[2]; DENV-2 strain Th36, Huh-7 cells
  IC50: 4.6 ± 0.4 µM
[3]; DENV-4 strain H241, Huh-7 cells
  IC50: 11 ± 1 µM
[3]; DENV-4 strain Phili/1567, Huh-7 cells
  IC50: 2 ± 0.4 µM
[3]; DENV-4 strain Senga/DA, Huh-7 cells
  IC50: 6.5 ± 0.9 µM
[3]; DENV-4 strain Venz/JQ, Huh-7 cells
  IC50: 5.5 ± 1.3 µM
[4]; DENV-1 strain FR28 (clinical isolate)
  IC50: 6.8 ± 1.1 µM
[4]; DENV-1 strain FR34 (clinical isolate)
  IC50: 7 ± 2 µM
[4]; DENV-1 strain FR37 (clinical isolate)
  IC50: 7.2 ± 2 µM
[4]; DENV-1 strain FR42 (clinical isolate)
  IC50: 7.4 ± 2.3 µM
[4]; DENV-1 strain Thsman
  IC50: 8.8 ± 1.2 µM
